Read-outs that look alike come from different tables or passages of the source.
Experiments:
Factor VII = Factor VII activity assay, in vivo liver delivery of FVII siRNA LNP; design: species or system mouse; settings: for FVII inhib %: ~48 h
Experimental: Female CD-1 mice are received from Charles River Labs and maintained on standard lab chow and water ad libitum. The animals weigh approximately 25 grams at time of dosing. Formulated siRNA is administered as a single dose at various dose levels intravenously via the lateral tail vein calculated on a (mg siRNAs/kg) basis according to individual animal weights (10 ml/kg injection volume).
Formulated siRNAs are made up of double stranded siRNA sequences specific to a target mRNA sequence, and are in the form of lipid nucleotid particles (LNPs) containing cationic lipids, stealth lipids and neutral lipids, as provided in the Examples below. The siRNA construct for use in targeting the liver is specific to Factor VII. […] FVII siRNA duplex sequence
Formulated Factor VII siRNA is administered as a single dose at various dose levels intravenously via the lateral tail vein calculated on a mg siRNAs/kg basis according to individual animal weights (10 ml/kg injection volume). Approximately 48 h after injection, the mice are euthanized by CO2 inhalation followed by exsanguinations through the vena cava. […] In some cases, small pieces (˜50 mg) of liver are collected and snap frozen in liquid nitrogen for follow up mRNA quantitation.
An assay standard curve is prepared using pooled plasma aliquots from the vehicle control animals.

[1] = pKa of the lipid by TNS fluorescence; assay type: physicochemical
Experimental: Unless explicitly indicated otherwise, all pKas referred to herein are measured in water at standard temperature and pressure. Also, unless otherwise indicated, all references to pKa are references to pKa measured using the following technique.
2 mM solution of lipid in ethanol are prepared by weighing the lipid and then dissolving in ethanol.
This is done with all eight buffers.
Priority: Column priority • Carriage Speed: Normal • Auto read: Off
The normalized fluorescence intensity vs. pH chart is then plotted in the Microsoft Excel software. The eight points are connected with a smooth line.
The pKa determined using this method is precise to about 0.2 pKa units.

[2] = Particle size and PDI by dynamic light scattering (Malvern Zetasizer); assay type: physicochemical
Experimental: Unless indicated otherwise, all sizes referred to herein are the average sizes (diameters) of the fully formed nanoparticle, as measured by dynamic light scattering on a Malvern Zetasizer. The nanoparticle sample is diluted in phosphate buffered saline (PBS) so that the count rate is approximately 200-400 kcts. The data is presented as a weighted average of the intensity measure.
The acronym PDI stands for polydispersity index. Unless indicated otherwise, all PDIs referred to herein are the PDI of the fully formed nanoparticle, as measured by dynamic light scattering on a Malvern Zetasizer. The nanoparticle sample is diluted in phosphate buffered saline (PBS) so that the count rate is approximately 200-400 kcts.

[3] = dose 3 mg/kg siRNA i.v., lipid/DSPC/CHOL/AVANTI 880150P 50/28/18/4, N/P 3.43
[4] = dose 3 mg/kg siRNA i.v., lipid/no neutral lipid/CHOL/AVANTI 880150P 50/0/46/4, N/P 3.43
[5] = lipid/DSPC/CHOL/AVANTI 880150P 50/28/18/4, N/P 3.43
[6] = lipid/no neutral lipid/CHOL/AVANTI 880150P 50/0/46/4, N/P 3.43
[7] = dose 1 mg/kg siRNA i.v., lipid/no neutral lipid/CHOL/GM-020 NOF 60/0/36/4, N/P 3
[8] = lipid/no neutral lipid/CHOL/GM-020 NOF 60/0/36/4, N/P 3
[9] = dose 1 mg/kg siRNA i.v., lipid/DSPC/CHOL/AVANTI 880150P 50/28/18/4, N/P 3.43

Compound | FVII inhib % (Factor VII; [3]) [%] | FVII inhib % (Factor VII; [4]) [%] | pKa ([1]; pKa) | Final size (nm) [2, 5] [nm] | PDI [2, 5] | Final size (nm) [2, 6] [nm] | PDI [2, 6] | FVII inhib % (Factor VII; [7]) [%] | Final size (nm) [2, 8] [nm] | PDI [2, 8] | in vivo Factor VII inhibition (Factor VII; formulation containing the cationic lipid, RNAi construct specific to Factor VII, liver) [%] | FVII inhib % (Factor VII; [9]) [%] | FVII inhib % (Factor VII; dose 1 mg/kg siRNA i.v., lipid/no neutral lipid/CHOL/AVANTI 880150P 50/0/46/4, N/P 3.43) [%] | pKa ([1]; aqueous buffer series with fluorescent probe TNS, probe TNS, pKa of the cationic lipid, read-out: pKa)
CCCCC/C=C\C/C=C\CCCCCCCCOCC(CN1CCc2ccccc2C1)OCCOCCO[C@H]1CC[C@@]2(C)C(=CC[C@H]3[C@@H]4CC[C@H]([C@H](C)CCCC(C)C)[C@@]4(C)CC[C@@H]32)C1 (some centres unmarked) [E0001] | 27.6 | 20.1 | 4.84 | 71 | 0.101 | 77 | 0.16 | – | – | – | – | – | – | –
CCCCC/C=C\C/C=C\CCCCCCCCOCC(CN1CCC[C@H]1C)OCCOCCO[C@H]1CC[C@@]2(C)C(=CCC3C2CC[C@@]2(C)C3CC[C@@H]2[C@H](C)CCCC(C)C)C1 (some centres unmarked) [E0049] | – | 78.8 | 6.85 | – | – | 237 | 0.09 | – | – | – | – | – | – | –
CCCCC/C=C\C/C=C\CCCCCCCCOCC(CN1CC[C@H]2OC(C)(C)O[C@H]2C1)OCCOCCO[C@H]1CC[C@@]2(C)C(=CCC3C2CC[C@@]2(C)C3CC[C@@H]2[C@H](C)CCCC(C)C)C1 (some centres unmarked) [E0009] | 38.4 | 6.9 | 4.89 | 83 | 0.2 | 82 | 0.16 | – | – | – | – | – | – | –
CCCCC/C=C\C/C=C\CCCCCCCCCCOCC(CN1CCOCC1)OCCO[C@H]1CC[C@@]2(C)C(=CC[C@H]3[C@@H]4CC[C@H]([C@H](C)CCCC(C)C)[C@@]4(C)CC[C@@H]32)C1 (some centres unmarked) [E0068] | – | – | 4.82 | – | – | – | – | 28.6 | 174.0 | 0.041 | – | – | – | –
CCCCC/C=C\C/C=C\CCCCCCCCOCC(CN1CCC(C)(C)CC1)OCCOCCO[C@H]1CC[C@@]2(C)C(=CCC3C2CC[C@@]2(C)C3CC[C@@H]2[C@H](C)CCCC(C)C)C1 (some centres unmarked) [E0171] | – | 54.1 | 8.5 | – | – | 90 | 0.18 | – | – | – | 40.8 | – | – | –
CCCCC/C=C\C/C=C\CCCCCCCCOCC(CN1CCCCC1)OCCOCCNC(=O)O[C@H]1CC[C@@]2(C)C(=CCC3C2CC[C@@]2(C)C3CC[C@@H]2[C@H](C)CCCC(C)C)C1 (some centres unmarked) [E0054] | 97.8 | 98.9 | 6.58 | 103 | 0.2 | 96 | 0.13 | – | – | – | – | 57.5 | 63 | –
CCCCC/C=C\C/C=C\CCCCCCCCOCC(CN1CCCCC1)OC(=O)COCC(=O)O[C@H]1CC[C@@]2(C)C(=CCC3C2CC[C@@]2(C)C3CC[C@@H]2[C@H](C)CCCC(C)C)C1 (some centres unmarked) [E0047] | – | −3.4 | 5.55 | – | – | 112 | 0.061 | – | – | – | – | – | – | –
CCCCC/C=C\C/C=C\CCCCCCCCOCC(CN1CCC[C@@H]1C)OCCOCCO[C@H]1CC[C@@]2(C)C(=CCC3C2CC[C@@]2(C)C3CC[C@@H]2[C@H](C)CCCC(C)C)C1 (some centres unmarked) [E0048] | – | 88.5 | 6.56 | – | – | 225 | 0.115 | – | – | – | – | – | – | –
CCCCC/C=C\C/C=C\CCCCCCCCOCC(CN1C[C@@H](C)O[C@@H](C)C1)OCCOCCO[C@H]1CC[C@@]2(C)C(=CC[C@H]3[C@@H]4CC[C@H]([C@H](C)CCCC(C)C)[C@@]4(C)CC[C@@H]32)C1 (some centres unmarked) [E0006] | 15.7 | 21.2 | 4.88 | 146 | 0.04 | 95 | 0.142 | – | – | – | – | – | – | –
CCCCC/C=C\C/C=C\CCCCCCCCOCC(CN1CC[C@@H]2CCCC[C@H]2C1)OCCOCCO[C@H]1CC[C@@]2(C)C(=CCC3C2CC[C@@]2(C)C3CC[C@@H]2[C@H](C)CCCC(C)C)C1 (some centres unmarked) [E0020] | 62.4 | 51.4 | 6.08 | 83 | 0.138 | 81 | 0.084 | – | – | – | – | – | – | –
CCCCCCCC/C=C\CCCCCCCCOCC(CN1CCCC1C)OCCOCCO[C@H]1CC[C@@]2(C)C(=CC[C@H]3[C@@H]4CC[C@H]([C@H](C)CCCC(C)C)[C@@]4(C)CC[C@@H]32)C1 (some centres unmarked) [E0065] | – | – | 6.8 | – | – | – | – | 41.1 | 153.01 | 0.148 | – | – | – | –
CCCCC/C=C\C/C=C\CCCCCCCCOC[C@@H](CN1CCC[C@H]1C)OCCOCCO[C@H]1CC[C@@]2(C)C(=CCC3C2CC[C@@]2(C)C3CC[C@@H]2[C@H](C)CCCC(C)C)C1 (some centres unmarked) [E0052] | 98.1 | – | 6.95 | 100.4 | 0.185 | – | – | – | – | – | – | 69.8 | – | –
CCCCCCCC/C=C\CCCCCCCCOCC(CN1CCC(OC)C1)OCCOCCO[C@H]1CC[C@@]2(C)C(=CC[C@H]3[C@@H]4CC[C@H]([C@H](C)CCCC(C)C)[C@@]4(C)CC[C@@H]32)C1 (some centres unmarked) [E0064] | – | – | 6.83 | – | – | – | – | 37.2 | 169.2 | 0.144 | – | – | – | –
CCCCC/C=C\C/C=C\CCCCCCCCOCC(CN1CCC(O[Si](C)(C)C(C)(C)C)C1)OCCOCCO[C@H]1CC[C@@]2(C)C(=CC[C@H]3[C@@H]4CC[C@H]([C@H](C)CCCC(C)C)[C@@]4(C)CC[C@@H]32)C1 (some centres unmarked) [E0042] | 49.1 | 84.5 | – | 83 | 0.11 | 73 | 0.19 | – | – | – | – | – | – | 6.7
CCCCC/C=C\C/C=C\CCCCCCCCOCC(CN1CCCC1c1ccccc1)OCCOCCO[C@H]1CC[C@@]2(C)C(=CC[C@H]3[C@@H]4CC[C@H]([C@H](C)CCCC(C)C)[C@@]4(C)CC[C@@H]32)C1 (some centres unmarked) [E0050] | −7.2 | −10.4 | 4.9 | 100 | 0.21 | 103 | 0.097 | – | – | – | – | – | – | –
CCCCC/C=C\C/C=C\CCCCCCCCOCC(CN1CCCC1C)OCCOCCOCCO[C@H]1CC[C@@]2(C)C(=CC[C@H]3[C@@H]4CC[C@H]([C@H](C)CCCC(C)C)[C@@]4(C)CC[C@@H]32)C1 (some centres unmarked) [E0082] | – | – | 6.81 | – | – | – | – | 49.7 | 105.1 | 0.303 | – | – | – | –
